In brackets after ≈: the same amount, converted by molar mass.
Assays:
[1] = system: Staphylococcus capitis (American Type Culture Collection number 35661); assay: Minimal inhibitory concentration (MIC) against Staphylococcus capitis; type: cell-based; details: 2×YT broth, 37° C., 18 hours, lowest drug concentration that inhibited visible growth
Experimental: Minimal inhibitory concentrations (MIC) of inhibitors against E. coli strain DH5α (Genotype; F-φ80dlacZΔM 15Δ(lacZYA-argF)U 169 deoR recA1 endA1 hsdR17(rk^−, mk^+)phoA supE44λ^−thi-1 gyrA96 relA1) obtained from GibcoBRL Life Technologies, or Staphylococcus capitis (American Type Culture Collection number 35661) were determined as follows. Stock solutions of each test compound were prepared by dissolution of the compound in dimethylsulfoxide at 10 mM. For the determination of the minimal inhibitory concentration, two fold serial dilutions were prepared in 2×YT broth (typtone 16 g/1, yeast extract 10 g/1, sodium chloride 5 g/1 obtained from BIO 101 Inc, 1070 Joshua Way, Vista, Calif. 92083, USA) to yield 0.05 ml compound-containing medium per well. Inocula were prepared from cultures grown overnight in 2×YT broth at 37° C. Cell densities were adjusted to absorbance at 660 nm (A660)=0.1; the optical density-standardized preparations were diluted 1:1000 in 2×YT broth; and each well inoculated with 0.05 ml of the diluted bacteria. Microtiter plates were incubated at 37° C. for 18 hours in a humidified incubator. The MIC (μM) was recorded as the lowest drug concentration that inhibited visible growth.

Row | SMILES | MIC [1] [µM] | melting point [°C]
1 | CCCCCC[C@H](CC(=O)NO)C(=O)N[C@@H](Cc1ccccc1)C(=O)OC(C)C | 100 (≈ 40.7 µg/mL) | –
2 | CCOC(=O)[C@@H](NC(=O)[C@H](CC(C)C)[C@H](C)C(=O)NO)C(C)(C)C [Example 2] | – | 198 to 203
